Experimental findings from patent US20260138976A1 (Hoffmann-La Roche Inc., priority 2022, published 2026) are described below.

Molecules are shown by their SMILES.

In assay [1] the target is T1, DGKζ (hDGKzeta(1-928)-N-His) (Homo sapiens, UniProt Q13574).
T1 construct: hDGKzeta(1-928)-N-His; His (N); made in house; host or cells: Sf21 insect cells (baculovirus)
As to the kind of experiment: In vitro DGK inhibition assay, DGKzeta ADP Glo (in house). Type of assay: biochemical. Particulars: 2 nM DGKζ, 50 μM ATP, 125 uM DLG in liposomes, 1 hour reaction. The method, boiled down:
(§1)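 Full-length His-tagged human DGKα (4 nM) or DGKζ (2 nM), expressed in Sf21 cells, phosphorylated 125 µM DLG in PS/PC liposomes with ATP at 25 µM (α) or 50 µM (ζ) for 1 h. ADP was measured by ADP-Glo luminescence. Compounds were tested as 11-point 1:3 series in 2% DMSO.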

Assay [2] concerns MV-3 cells. As to the kind of experiment: T-cell - TCB - MV3 killing assay. Type of assay: cell-based, human. As to conditions: for Emax: Homo sapiens, MV-3, 120 h, % TCL normalized: MCSP-TCB only = neutral control, 20 μM reference compound A1 = 100%, read-out: MSCP TCB killing MV-3 cells 5 d Emax (%); for EC50: primary human T-cells + MV-3 RFP cells, MCSP-TCB 1.5 pM-5 pM, 120 hours imaging, read-out: MSCP TCB killing MV-3 cells 5 d EC50. As to the method: All culturing steps are executed at 5% CO2, 37° C. and 95% humidity. MV-3 RFP cells are cultured in MV-3 medium (DMEM+10% FBS, 1× PenStrep and 0.5 μg/mL Puromycin) for at least 3 weeks. Cultured MV-3 cells at 80% confluency are washed once with PBS−− and trypsinized until detached. […] Cells are seeded with 100 μL/well into a 96-well plate (TTP, #92696), and placed for 40 minutes without moving at room temperature in order to achieve evenly distributed attachment of cells. Plates are then incubated until further use.
On the next day, expanded primary human T-cells are thawed and resuspended in T-cell medium to 4*10^6 cells/mL. For 3 hours, they are cultured in a 6-well plate with 6 mL per well at maximum. After culturing the T-cells, they are filtered through a cell strainer (Miltenyi Biotech, #130-041-407), counted again, and cell concentration is adjusted to 2*10^6 cells/mL.
MCSP-TCB or PBS are pre-diluted in T-cell medium (concentration depending on T-cell donor), 4 times more concentrated than the end-concentration. 60 μL/well of pre-dilutions are then distributed into a round bottom plate (Costar, #3799) according to plate layout. Compounds are added in a 9 pt dose response with the Tecan D300e Digital Dispenser, as well 4 times more concentrated than the end-concentration. DMSO concentration of all wells is adjusted to 0.8%, resulting in 0.2% as final concentration.
60 μL per well of T-cell suspension are added to the prepared round bottom plate and resuspended with a manual multichannel. 100 μL/well of the resuspended T-cell suspension including treatments are then transferred cautiously to the over-night cultured MV-3 cells according to plate layout. 100 μL T-cell medium only is added to the outer MV-3 wells only. Final compound DR is starting at 20 μM with a dilution factor of 3.333. Final TCB concentration is between 1.5 pM to 5 pM and was determined for each T-cell donor individually by running TCB titrations. For each donor, a TCB concentration was chosen which corresponds to 10-20% MV3 baseline cell killing in the absence of compound treatment. Positive control is the reference compound A1 which is added in a DR, as well as additional wells with only 20 μM. 20 μM of reference compound A1 represent the positive stimulator control, TCB only (DMSO wells) the neutral control.
After transfer of T-cells with treatment pre-dilutions, MV-3 cells are imaged by time-lapse microscopy using IncucyteZOOM™ (Essen BioScience, MI, USA). Imaging is performed every 3 hours for a total of 120 hours (10× objective, phase and red image channels, acquisition time 400 ms, Green/Red 4614 optical module). RFP object count per well is analysed in the IncucyteZOOM™ Software (Version 2019B Rev2) with a mask that was previously created and optimized for MV-3 cells. Raw data is exported as object count/well and values are normalized as % TCL compared to wells with MV-3 only, representing 100% growth and therefore 0% TCL.
Calculated % TCL values are analysed in Genedata Screener using Roche Normalization PCT_POS_CTRL with MCSP-TCB only set as Neutral Control and 20 μM of the reference compound A1 set as Stimulator Control/100%.
Induced TCL by compounds without TCB treatment or toxicity (observed in the PBS condition) were be flagged.

For assay [3], the target named is T2, DGKα (hDGKalpha(1-735)-N-His) (Homo sapiens, UniProt P23743).
T2 construct: hDGKalpha(1-735)-N-His; His (N); made in house; host or cells: Sf21 insect cells (baculovirus)
Nature of the assay: In vitro DGK inhibition assay, DGKalpha ADP Glo (in house). Type of assay: biochemical. As to conditions: 4 nM DGKα, 25 μM ATP, 125 uM DLG in liposomes, 1 hour reaction. The method, boiled down: as §1

Assay [4] deals with T3, DGK α kinase (Homo sapiens, UniProt P23743).
T3 construct: purchased Reaction Biology Corp. (contract assay service)
As to the kind of experiment: DGKalpha kinase ADP Glo assay run by Reaction Biology Corp. Type of assay: biochemical. As to conditions: 2 nM kinase, 50 µM ATP, 500 μM DLG, 10-dose duplicate. As to the method: DGK α and ζ kinases use ATP to phosphorylate the substrate 1,2-dilauroyl-sn-glycerol (DLG). ATP is converted to ADP as a result of this enzymatic reaction.
After the kinase reaction, an ATP-depletion reagent is added to terminate the kinase reaction and deplete any remaining ATP, leaving only ADP. Second, a detection reagent is added to simultaneously convert ADP to ATP and allow the newly synthesized ATP to be converted to light using a coupled luciferase/luciferin reaction.
DGK α and ζ kinase ADP Glo assays were ran by Reaction Biology Corp., 1 Great Valley Parkway, Suite 2, Malvern, 19355, PA, USA. Information provided by the service provider are the following: DGK α and ζ kinases were used at 2 nM final concentration. Reactions were carried out at 50 µM ATP. 500 μM of the substrate DLG (Dilauroyl-sn-glycerol) was used.

T3 sequence (P23743 whole entry): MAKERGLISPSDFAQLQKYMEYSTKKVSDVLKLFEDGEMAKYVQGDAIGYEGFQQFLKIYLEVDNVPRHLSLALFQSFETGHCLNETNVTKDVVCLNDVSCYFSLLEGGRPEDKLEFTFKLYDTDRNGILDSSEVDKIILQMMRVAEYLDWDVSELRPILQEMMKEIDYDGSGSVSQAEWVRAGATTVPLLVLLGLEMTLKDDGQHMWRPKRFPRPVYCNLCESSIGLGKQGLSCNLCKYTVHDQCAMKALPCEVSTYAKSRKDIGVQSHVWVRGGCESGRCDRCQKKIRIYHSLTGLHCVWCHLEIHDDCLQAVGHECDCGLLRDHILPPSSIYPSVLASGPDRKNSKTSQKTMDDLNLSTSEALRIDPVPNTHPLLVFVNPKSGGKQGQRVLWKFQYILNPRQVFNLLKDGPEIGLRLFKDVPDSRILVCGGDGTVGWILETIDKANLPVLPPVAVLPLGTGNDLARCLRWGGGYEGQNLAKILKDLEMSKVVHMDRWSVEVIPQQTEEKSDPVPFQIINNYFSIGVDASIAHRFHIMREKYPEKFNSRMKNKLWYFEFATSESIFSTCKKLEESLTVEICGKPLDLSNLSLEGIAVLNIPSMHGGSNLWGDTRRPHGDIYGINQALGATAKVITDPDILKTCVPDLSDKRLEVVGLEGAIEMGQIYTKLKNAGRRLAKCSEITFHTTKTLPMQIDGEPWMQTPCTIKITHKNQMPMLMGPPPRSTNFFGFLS
T2 sequence (P23743 whole entry): as above
T1 sequence (Q13574 whole entry): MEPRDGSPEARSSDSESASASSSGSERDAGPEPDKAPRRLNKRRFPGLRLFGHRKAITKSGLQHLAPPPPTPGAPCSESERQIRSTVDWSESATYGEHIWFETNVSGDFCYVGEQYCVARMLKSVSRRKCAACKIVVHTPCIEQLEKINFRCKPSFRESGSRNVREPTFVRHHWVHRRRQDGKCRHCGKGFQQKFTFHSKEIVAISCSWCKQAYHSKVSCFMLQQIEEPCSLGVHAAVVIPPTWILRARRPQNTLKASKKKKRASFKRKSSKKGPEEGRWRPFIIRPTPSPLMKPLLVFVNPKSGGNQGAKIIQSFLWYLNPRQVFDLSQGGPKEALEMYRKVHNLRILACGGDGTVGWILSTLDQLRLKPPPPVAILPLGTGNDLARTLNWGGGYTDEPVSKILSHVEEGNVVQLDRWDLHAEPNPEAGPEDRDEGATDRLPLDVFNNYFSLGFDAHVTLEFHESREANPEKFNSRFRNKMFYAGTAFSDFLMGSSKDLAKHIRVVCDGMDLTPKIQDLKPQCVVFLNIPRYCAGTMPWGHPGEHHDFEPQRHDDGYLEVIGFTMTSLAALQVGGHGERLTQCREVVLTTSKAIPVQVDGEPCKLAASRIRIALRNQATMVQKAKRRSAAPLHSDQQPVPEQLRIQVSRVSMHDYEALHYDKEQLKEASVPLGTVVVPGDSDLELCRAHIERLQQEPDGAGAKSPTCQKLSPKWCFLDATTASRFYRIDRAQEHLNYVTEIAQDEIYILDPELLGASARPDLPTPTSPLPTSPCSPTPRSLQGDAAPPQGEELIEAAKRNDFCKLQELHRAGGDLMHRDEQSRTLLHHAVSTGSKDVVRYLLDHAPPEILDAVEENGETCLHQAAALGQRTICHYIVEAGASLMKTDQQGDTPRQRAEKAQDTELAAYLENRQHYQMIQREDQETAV

`N[C@H]1CS(=O)(=O)c2ccc(-c3nnc(N4CCC(F)(F)CC4)o3)cc2N(Cc2ccc(-n3ccc(C(F)(F)F)n3)cc2)C1=O` [Example 162, (3R)-3-amino-7-[5-(4,4-difluoro-1-piperidyl)-1,3,4-oxadiazol-2-yl]-1,1-dioxo-5-[[4-[3-(trifluoromethyl)pyrazol-1-yl]phenyl]methyl]-2,3-dihydro-1λ^6,5-benzothiazepin-4-one]: the half-maximal inhibitory concentration (IC50) in assay [1] was 1.1 µM. For the same compound, in assay [2], the maximal response (Emax) was found to be 100% and the EC50 is 0.168 µM. The same compound had an IC50 in assay [3] above 62.5 µM.
`CC(C#N)c1nnc(-c2ccc3c(c2)N(Cc2ccc(-c4noc(C(F)(F)F)n4)cc2)C(=O)[C@@H](N)CS3(=O)=O)o1` (stereo partly drawn) [Example 35, 2-[5-[(3R)-3-amino-1,1,4-trioxo-5-[[4-[5-(trifluoromethyl)-1,2,4-oxadiazol-3-yl]phenyl]methyl]-2,3-dihydro-1λ^6,5-benzothiazepin-7-yl]-1,3,4-oxadiazol-2-yl]propanenitrile] had a concentration for half-maximal inhibition (IC50) in assay [1] of 3.06 µM. Further, in assay [2], the maximal effect (Emax) is 91% and the EC50 was 0.373 µM. In assay [3], the half-maximal inhibitory concentration (IC50) amounted to 10.1 µM.
Consider `N[C@H]1CS(=O)(=O)c2ccc(-c3nnc(C4(C5CC5)CCCO4)o3)cc2N(Cc2ccc(-c3noc(C(F)(F)F)n3)cc2)C1=O` (stereo partly drawn) [Example 36, (3R)-3-amino-7-[5-(2-cyclopropyl-tetrahydrofuran-2-yl)-1,3,4-oxadiazol-2-yl]-1,1-dioxo-5-[[4-[5-(trifluoromethyl)-1,2,4-oxadiazol-3-yl]phenyl]methyl]-2,3-dihydro-1λ^6,5-benzothiazepin-4-one], for which the IC50 in assay [1] was determined as 0.956 µM; in assay [4] it was 0.0585 µM; in assay [3] it was 2.6 µM.
With `N[C@H]1CS(=O)(=O)c2cc(F)c(-c3noc(C4(CO)CCCO4)n3)cc2N(Cc2ccc(-c3noc(C(F)(F)F)n3)cc2)C1=O` (stereo partly drawn) [Example 18, (3R)-3-amino-8-fluoro-7-[5-[2-(hydroxymethyl)tetrahydrofuran-2-yl]-1,2,4-oxadiazol-3-yl]-1,1-dioxo-5-[[4-[5-(trifluoromethyl)-1,2,4-oxadiazol-3-yl]phenyl]methyl]-2,3-dihydro-1λ^6,5-benzothiazepin-4-one], half-maximal inhibition in assay [1] (IC50) was put at 0.151 µM. In assay [2], the maximal effect (Emax) stood at 67% and the 50% effective concentration (EC50) amounted to 0.029 µM. Besides, the IC50 in assay [3] was 3.87 µM.
For `N[C@H]1CS(=O)(=O)c2ccc(-c3nnc(C4(N)CCCCC4)o3)cc2N(Cc2ccc(-c3noc(C(F)(F)F)n3)cc2)C1=O` [Example 39, (3R)-3-amino-7-[5-(1-aminocyclohexyl)-1,3,4-oxadiazol-2-yl]-1,1-dioxo-5-[[4-[5-(trifluoromethyl)-1,2,4-oxadiazol-3-yl]phenyl]methyl]-2,3-dihydro-1λ^6,5-benzothiazepin-4-one], the half-inhibitory concentration (IC50) is 1.78 µM in assay [1], 0.0946 µM in assay [4] and 19 µM in assay [3]. Moreover, the maximal response (Emax) in assay [2] came out at 72%. Also, the EC50 in assay [2] stood at 0.19 µM.
Take `CC(C)(C#N)c1nnc(-c2cc3c(cc2F)S(=O)(=O)C[C@H](N)C(=O)N3Cc2ccc(-c3ccc(C(F)(F)F)cn3)cc2)o1` [Example 88, 2-[5-[(3R)-3-amino-8-fluoro-1,1,4-trioxo-5-[[4-[5-(trifluoromethyl)-2-pyridyl]phenyl]methyl]-2,3-dihydro-1λ^6,5-benzothiazepin-7-yl]-1,3,4-oxadiazol-2-yl]-2-methyl-propanenitrile]: the IC50 was 0.183 µM in assay [1], 0.0111 µM in assay [4] and 0.762 µM in assay [3].
Take `N[C@H]1CS(=O)(=O)c2ccc(-c3nnc(C4(CO)CCCO4)o3)cc2N(Cc2ccc(-c3noc(C(F)(F)F)n3)cc2)C1=O` (stereo partly drawn) [Example 54, (3R)-3-amino-7-[5-[2-(hydroxymethyl)tetrahydrofuran-2-yl]-1,3,4-oxadiazol-2-yl]-1,1-dioxo-5-[[4-[5-(trifluoromethyl)-1,2,4-oxadiazol-3-yl]phenyl]methyl]-2,3-dihydro-1λ^6,5-benzothiazepin-4-one]: the concentration for half-maximal inhibition (IC50) in assay [1] came out at 1.38 µM. In assay [2], the Emax turned out to be 86% and the EC50 was determined as 0.246 µM. The compound also displayed an IC50 in assay [3] of 12.6 µM.
Take `Cn1nc(C(F)(F)F)cc1-c1ccc(CN2C(=O)[C@@H](N)CS(=O)(=O)c3ccc(-c4nnc(C(C)(C)C)o4)cc32)cc1` [Example 92]: the values for the half-inhibitory concentration (IC50) in assay [1] and in assay [3] were 1.71 µM and 17.5 µM, respectively. The maximum response (Emax) in assay [2] was 99%. The concentration giving a half-maximal response (EC50) in assay [2] worked out at 0.12 µM.
Compound `COC(F)(c1nnc(-c2ccc3c(c2)N(Cc2ccc(-c4noc(C(F)(F)F)n4)cc2)C(=O)[C@@H](N)CS3(=O)=O)o1)C(F)(F)F` (stereo partly drawn) [Example 37, (3R)-3-amino-1,1-dioxo-7-[5-(1,2,2,2-tetrafluoro-1-methoxy-ethyl)-1,3,4-oxadiazol-2-yl]-5-[[4-[5-(trifluoromethyl)-1,2,4-oxadiazol-3-yl]phenyl]methyl]-2,3-dihydro-1λ^6,5-benzothiazepin-4-one] had an IC50 in assay [1] of 8.83 µM. Also, in assay [2], the Emax was 133% and the concentration giving a half-maximal response (EC50) was found to be 0.058 µM. Also, inhibition in assay [3] was half-maximal at 2 µM (IC50).
For `N[C@H]1CS(=O)(=O)c2ccc(-c3nnc(N4CCOC(F)(F)C4)o3)cc2N(Cc2ccc(-c3nnc(C(F)(F)F)o3)cc2)C1=O` [Example 80] the same measures were 1.26 µM, 86%, 0.257 µM and 11.8 µM.
With `CC(O)(c1nnc(-c2ccc3c(c2)N(Cc2ccc(-c4noc(C(F)(F)F)n4)cc2)C(=O)[C@@H](N)CS3(=O)=O)o1)C(F)(F)F` (stereo partly drawn) [Example 96, (3R)-3-amino-1,1-dioxo-7-[5-(2,2,2-trifluoro-1-hydroxy-1-methyl-ethyl)-1,3,4-oxadiazol-2-yl]-5-[[4-[5-(trifluoromethyl)-1,2,4-oxadiazol-3-yl]phenyl]methyl]-2,3-dihydro-1λ^6,5-benzothiazepin-4-one], the IC50 was 3.38 µM in assay [1], 0.0447 µM in assay [4] and 24.6 µM in assay [3].
